In patent US20260041640A1 (INCYCLIX BIO, LLC, priority 2023, published 2026):
Where two headings read alike, the source gives them in different places. Marks after values point to notes of the source that are not given here. One block for each compound: values may come before it.

Experiments:
[1] = Published human plasma PK of BLU-222 and PF-07104091 (estimated from 2023 ASCO presentations); assay type: in vivo; conditions: for Cmax to Cmin Ratio: estimated from published human results
From the text: This is under the assumption that off-target toxicity is driven by Cmax and efficacy is driven by time above therapeutic threshold (Table 5).

CDK2/cyclin E [2] = molecular target: T1, CDK2/cyclin E (Homo sapiens, UniProt P24941); conditions: biochemical; read-out: Target IC50 CDK2/cyclin E; cited from earlier work
CDK2/cyclin E [3] = molecular target: T1, CDK2/cyclin E; conditions: intracellular; read-out: Nanobret IC50 CDK2/cyclin E; cited from earlier work
Ovcar-3 = conditions: BLU-222: based on Ovcar-3 cell cycle data (maximum G1 arrest); read-out: Cellular IC50; cited from earlier work
CCNE1-amplified cancers = conditions: BID dosing; cited from earlier work
[4] = phase 1/2 trial, advanced solid tumors; cited from earlier work
[5] = cited from earlier work
[6] = treatment-related AEs, cited from earlier work
[7] = plasma, 400 mg BID, estimated from published graph
[8] = plasma, 600 mg BID, estimated from published graph

Cmax to Cmin Ratio ([1]; 400 mg BID): 9.3 | Cmax to Cmin Ratio ([1]; 600 mg BID): 22
Compound: FC(F)Oc1cc(Nc2cnc3cnn(CC4CCOCC4)c3n2)n[nH]1 [BLU-222]
IC50 (CDK2/cyclin E [2]): 2.6 nM | IC50 (CDK2/cyclin E [3]): 17.7 nM | IC50 (Ovcar-3): > 100 nM | In Vivo efficacy (efficacious dose) (CCNE1-amplified cancers): 100 mg/kg mg/kg BID | ocular adverse events (AEs) affecting vision, incidence [4]: 19% | ocular adverse events (AEs) affecting vision, patients [4]: 5 patients | C12 hr [5, 7]: 100* ng/mL | Cmax [5, 7]: 927* ng/mL | C12 hr [5, 8]: 120* ng/mL | Cmax [5, 8]: 2639* ng/mL

Compound: COCc1cc(C(=O)Nc2cc([C@H]3CC[C@@H](OC(=O)NC(C)C)C3)[nH]n2)n(C)n1 [PF-07104091]
C12 hr (Cmin at 12 hours) ([1]; 300 mg BID, estimated using Cmax of 2000 ng/mL and t1/2 of 2-3 hours): ~31-125* ng/mL | concentration at 12 h ([1]; human, 300 mg, read-out: C12 hr (Cmin at 12 hours)): 31.2 to 125 ng/mL | IC50 (Ovcar-3): < 100 nM | In Vivo efficacy (efficacious dose) (CCNE1-amplified cancers): ≥ 100 mg/kg BID | anemia ([6]; Grade 3): 8.6% | diarrhea ([6]; Grade 3): 8.6% | fatigue ([6]; Grade 3): 20.0% | nausea ([6]; Grade 3): 14.3% | vomiting ([6]; Grade 3): 2.9% | anemia ([6]; all grades): 45.7% | diarrhea ([6]; all grades): 48.6% | fatigue ([6]; all grades): 45.7% | nausea ([6]; all grades): 77.1% | vomiting ([6]; all grades): 48.6% | t1/2 ([5]; human, plasma): 2 to 3 h | MTD and monotherapy recommended dose for expansion (RDE) ([5]; human): 300 mg BID | Cmax ([5]; plasma, 300 mg BID, estimated from 2023 ASCO presentation): ~2000* ng/mL
